From ChEMBL document CHEMBL5113489, “Design, synthesis, and biological evaluation of membrane-active honokiol derivatives as potent antibacterial agents” (Eur J Med Chem, 2022)
Calls of active or inactive are those of the source. The rule behind the calls is not given here.

How the values were obtained:
Escherichia coli [1] = assay: Anti-biofilm activity in Escherichia coli ATCC 25922 assessed as disruption rate of biofilm at 8 ug/ml measured by crystal violet staining method; assay type: functional; settings: dose 8 µg/ml
Staphylococcus aureus [2] = assay: Anti-biofilm activity in Staphylococcus aureus ATCC 43300 assessed as inhibition of biofilm formation at 4 ug/ml; assay type: functional
Cell membrane [3] = assay: Induction of cell membrane disruption in Escherichia coli ATCC 25922 assessed as increase in fluorescence intensity at 8 times MIC measured after 2 hrs by DAPI staining based fluorescence microscopic analysis
[4] = Selectivity index, ratio of HC50 for hemolytic activity in sheep RBC to MIC for antibacterial activity against Staphylococcus aureus ATCC 43300; assay type: toxicity; settings: sheep red blood cells (erythrocytes)
Staphylococcus aureus [5] = assay: Antibacterial activity against Staphylococcus aureus ATCC 43300 assessed as resistance development by measuring fold increase in MIC; assay type: functional
[6] = Toxicity in septicemia mouse model infected with Staphylococcus aureus ATCC 43300 assessed as effect on spleen at 5 to 10 mg/kg, administered every 12 hrs for 3 days measured by histopathological analysis; assay type: organism-based; settings: in vivo, dose 5-10 mg/kg
Cell membrane [7] = assay: Induction of cell membrane disruption in Staphylococcus aureus ATCC 43300 assessed as increase in fluorescence intensity at 8 times MIC measured after 2 hrs by DAPI staining based fluorescence microscopic analysis
Escherichia coli [8] = assay: Anti-biofilm activity in Escherichia coli ATCC 25922 assessed as disruption rate of biofilm at 4 ug/ml measured by crystal violet staining method; assay type: functional; settings: dose 4 µg/ml
Staphylococcus aureus [9] = assay: Antibacterial activity against Staphylococcus aureus ATCC 43300 assessed as bacterial killing at 8XMIC incubated for 3 hrs and measured by time-kill kinetic study; assay type: functional
Escherichia coli [10] = assay: Anti-biofilm activity in Escherichia coli ATCC 25922 assessed as disruption rate of biofilm at 64 ug/ml measured by crystal violet staining method; assay type: functional; settings: dose 64 µg/ml
Cell membrane [11] = assay: Induction of cytoplasmic membrane depolarization in Escherichia coli ATCC 25922 assessed as increase in fluorescence intensity at 1 to 8 times MIC measured by DiSC3-5 dye based fluorescence method; assay type: subcellular
Staphylococcus aureus [12] = assay: Anti-biofilm activity in Staphylococcus aureus ATCC 43300 assessed as disruption rate of biofilm at 2 ug/ml measured by crystal violet staining method; assay type: functional; settings: dose 2 µg/ml
Cell membrane [13] = assay: Induction of cell membrane disruption in Staphylococcus aureus ATCC 43300 assessed as increase in fluorescence intensity at 8 times MIC measured after 2 hrs by PI staining based fluorescence microscopic analysis; assay type: subcellular
Escherichia coli [14] = assay: Anti-biofilm activity in Escherichia coli ATCC 25922 assessed as disruption rate of biofilm at 16 ug/ml measured by crystal violet staining method; assay type: functional; settings: dose 16 µg/ml
Cell membrane [15] = assay: Induction of outer membrane permeabilization to NPN in Escherichia coli ATCC 25922 cells assessed as increase in fluorescence intensity at 4 to 32 ug/ml by NPN-probe based fluorescence spectrophotometric analysis; assay type: subcellular; settings: dose 4-32 µg/ml
Escherichia coli [16] = assay: Anti-biofilm activity in Escherichia coli ATCC 25922 assessed as inhibition of biofilm formation at 2 ug/ml; assay type: functional
Staphylococcus aureus [17] = assay: In vivo antibacterial activity against Staphylococcus aureus ATCC 43300 in septicemia mouse model assessed as log reduction in bacterial load in liver at 10 mg/kg, administered every 12 hrs for 3 days; assay type: functional
Cell membrane [18] = assay: Induction of inner membrane permeabilization in Escherichia coli ATCC 25922 assessed as increase in PI uptake by measuring increase in fluorescence intensity at 4 to 32 ug/ml by propidium iodide staining based fluorescence analysis; assay type: subcellular; settings: dose 4-32 µg/ml
Staphylococcus aureus [19] = assay: In vivo antibacterial activity against Staphylococcus aureus ATCC 43300 in septicemia mouse model assessed as log reduction in bacterial load in spleen at 10 mg/kg, administered every 12 hrs for 3 days; assay type: functional
[20] = Cytotoxicity against human HepG2 cells assessed as cell viability at 64 ug/ml measured by SRB assay; assay type: toxicity, cell-based; settings: at 64 µg/mL, read-out: Activity
[21] = Cytotoxicity against human HepG2 cells assessed as cell viability at 4 ug/ml measured by SRB assay; assay type: toxicity, cell-based; settings: at 4 µg/mL, read-out: Activity
Escherichia coli [22] = assay: Anti-biofilm activity in Escherichia coli ATCC 25922 assessed as inhibition of biofilm formation at 1 ug/ml; assay type: functional
[23] = Cytotoxicity against human HepG2 cells assessed as cell viability at 128 ug/ml measured by SRB assay; assay type: toxicity, cell-based; settings: dose 128 µg/ml, read-out: Activity
Pseudomonas aeruginosa = assay: Antibacterial activity against Pseudomonas aeruginosa ATCC 27853; assay type: functional
Staphylococcus aureus [24] = assay: Anti-biofilm activity in Staphylococcus aureus ATCC 43300 assessed as inhibition of biofilm formation at 0.25 ug/ml; assay type: functional
Staphylococcus aureus [25] = assay: Anti-biofilm activity in Staphylococcus aureus ATCC 43300 assessed as disruption rate of biofilm at 1 ug/ml measured by crystal violet staining method; assay type: functional; settings: dose 1 µg/ml
Escherichia coli [26] = assay: Antibacterial activity against Escherichia coli ATCC 25922 assessed as bacterial killing at 4 x MIC incubated for 9 hrs and measured by time-kill kinetic study; assay type: functional
Staphylococcus aureus [27] = assay: Anti-biofilm activity in Staphylococcus aureus ATCC 43300 assessed as disruption rate of biofilm at 8 ug/ml measured by crystal violet staining method; assay type: functional; settings: dose 8 µg/ml
Staphylococcus aureus [28] = assay: Anti-biofilm activity in Staphylococcus aureus ATCC 43300 assessed as disruption rate of biofilm at 4 ug/ml measured by crystal violet staining method; assay type: functional; settings: dose 4 µg/ml
[29] = Toxicity in septicemia mouse model infected with Staphylococcus aureus ATCC 43300 assessed as effect on liver at 5 to 10 mg/kg, administered every 12 hrs for 3 days measured by histopathological analysis; assay type: organism-based; settings: in vivo, dose 5-10 mg/kg
Escherichia coli [30] = assay: Anti-biofilm activity in Escherichia coli ATCC 25922 assessed as inhibition of biofilm formation at 32 ug/ml; assay type: functional
Staphylococcus aureus [31] = assay: In vivo antibacterial activity against Staphylococcus aureus ATCC 43300 in septicemia mouse model assessed as reduction in bacterial load in kidney at 10 mg/kg, administered every 12 hrs for 3 days; assay type: functional; set-up: scale not given: the % may be the effect or the level left
Escherichia coli [32] = assay: Anti-biofilm activity in Escherichia coli ATCC 25922 assessed as disruption rate of biofilm at 2 ug/ml measured by crystal violet staining method; assay type: functional; settings: dose 2 µg/ml
Staphylococcus aureus [33] = assay: Anti-biofilm activity in Staphylococcus aureus ATCC 43300 assessed as inhibition of biofilm formation at 0.5 ug/ml; assay type: functional
Staphylococcus aureus [34] = assay: Antibacterial activity against Staphylococcus aureus ATCC 43300 assessed as bacterial killing at 4 x MIC incubated for 9 hrs and measured by time-kill kinetic study; assay type: functional
Bacillus subtilis = assay: Antibacterial activity against Bacillus subtilis ATCC 9372; assay type: functional
Staphylococcus aureus [35] = assay: Anti-biofilm activity in Staphylococcus aureus ATCC 43300 assessed as disruption rate of biofilm at 16 ug/ml measured by crystal violet staining method; assay type: functional; settings: dose 16 µg/ml
Cell membrane [36] = assay: Induction of cell membrane disruption in Escherichia coli ATCC 25922 assessed as increase in fluorescence intensity at 8 times MIC measured after 2 hrs by PI staining based fluorescence microscopic analysis; assay type: subcellular
Staphylococcus aureus [37] = assay: Antibacterial activity against Staphylococcus aureus ATCC 25923; assay type: functional
[38] = Hemolytic activity in sheep RBC; assay type: toxicity, cell-based, Ovis aries, Erythrocyte; settings: sheep red blood cells (erythrocytes)

Compound: C=CCc1ccc(OCCC[N+](C)(C)CCCCCC)c(-c2ccc(OCCC[N+](C)(C)CCCCCC)c(CC=C)c2)c1.[Br-].[Br-]
- Activity (Escherichia coli [1]): 46.42%
- inhibition at 4 µg/mL (Staphylococcus aureus [2]): 91.2%
- Activity (Cell membrane [3]): Active
- selectivity ratio [4]: 410
- fold change (FC) (Staphylococcus aureus [5]): <4
- Activity [6]: Non-Toxic
- Activity (Cell membrane [7]): Active
- Activity (Escherichia coli [8]): 27.99%
- Activity (Staphylococcus aureus [9]): 100%
- Activity (Escherichia coli [10]): 65.6%
- Activity (Cell membrane [11]): Active
- Activity (Staphylococcus aureus [12]): 11.43%
- Activity (Cell membrane [13]): Active
- Activity (Escherichia coli [14]): 51.55%
- Activity (Cell membrane [15]): Active
- inhibition at 2 µg/mL (Escherichia coli [16]): 24.3%
- log(activity) (Staphylococcus aureus [17]): 2.35
- Activity (Cell membrane [18]): Active
- log(activity) (Staphylococcus aureus [19]): 2.19
- viability at 64 ug/ml [20]: 55.2%
- viability at 4 ug/ml [21]: 94.7%
- inhibition at 1 µg/mL (Escherichia coli [22]): 11.3%
- viability at 128 ug/ml [23]: 36.6%
- MIC (Pseudomonas aeruginosa): 16 µg/mL
- inhibition at 0.25 µg/mL (Staphylococcus aureus [24]): 4.06%
- Activity (Staphylococcus aureus [25]): 9.59%
- Activity (Escherichia coli [26]): >=99%
- Activity (Staphylococcus aureus [27]): 28.56%
- Activity (Staphylococcus aureus [28]): 17.61%
- Activity [29]: Non-Toxic
- inhibition at 32 µg/mL (Escherichia coli [30]): 87.4%
- Activity (Staphylococcus aureus [31]): 98.7%
- Activity (Escherichia coli [32]): 15.1%
- inhibition at 0.5 µg/mL (Staphylococcus aureus [33]): 9.72%
- Activity (Staphylococcus aureus [34]): >=99%
- MIC (Bacillus subtilis): 1 µg/mL
- Activity (Staphylococcus aureus [35]): 39.12%
- Activity (Cell membrane [36]): Active
- MIC (Staphylococcus aureus [37]): 2 µg/mL
- HC50 [38]: 410 µg/mL
